Our source for the TGI and GI50 values is PubChem BioAssay (NCI).

What all share (assay): growth of human tumour cells (NCI), 48 h
In test [1] the test system is A498 renal.
The subject of test [2] is SNB-75 CNS.
In test [3] the test system is HT29 colon.
For test [4], the system named is OVCAR-3 ovarian.
Test [5] concerns SK-MEL-28 melanoma.
For test [6], the system named is 786-0 renal.
Test [7] has as its system SNB-19 CNS.
The subject of test [8] is MALME-3M melanoma.
Test [9] deals with NCI-H460 lung.
The test system of test [10] is MOLT-4 leukemia.

SMILES strings stand for the structures. Values joined by “and” are separate entries in the source; they are usually repeats but may differ in a detail not shown here. Identical values can stand only once.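 Protocol summary: plate cells (96-well), add compound at 5 concentrations, incubate 48 h, interpolate endpoints linearly. GI50 is the concentration that inhibits growth by half. TGI denotes the concentration required for complete inhibition of growth.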 A value given as a limit tells only on which side of the number the result lay.

With `COC(=O)/C(=N\Nc1nc(=S)[nH]n1N)C(C#N)c1ccccc1` (centres undefined), the TGI in [1], in test [2], in test [3], in test [4], in [5] and in [6] was greater than 100 µM throughout. The TGI in test [7], in test [8], in [9] and in test [10] was greater than 100 µM each time.

As to `CC(C)(C)C(=O)OCOP(=O)(OCOC(=O)C(C)(C)C)C1CC(O)N(O)C1=O` (centres undefined), the GI50 in test [1] is 4.36 µM; in test [2] it was 19.2 µM; in test [3] it was 3.07 µM; in test [4] it was 9.79 µM; in [5] it was 2.38 µM; in test [6], 3.68 µM. Further, the GI50 in test [7] is 2.37 µM; in test [8] it was 2.82 µM; in test [9], 4.35 µM; in test [10] it was 3.91 µM. For the same molecule, the TGI was 47.3 µM in test [1]; greater than 100 µM in test [2]; 16.4 µM in test [3]; greater than 100 µM in [4]; 6.44 µM in [5]; greater than 100 µM in test [6]. The TGI in [7] is 7.33 µM; in test [8], greater than 100 µM; in test [9], greater than 100 µM; in test [10], greater than 100 µM.

In the case of `CC(=O)c1cc(C(=O)c2ccc3c(c2)Sc2ccccc2N3)c2c(C)cc(C)cn12`, the GI50 in test [1] is 0.0765 µM; in test [2], 0.171 µM; in [3], 0.315 µM; in test [4] it was 0.222 µM; in test [5], 3.64 µM; in test [6], 0.465 µM. Besides, the GI50 is 0.443 µM in test [7], 5.73 µM in test [8], 0.311 µM in test [9] and 0.465 µM in test [10]. The TGI in test [1] was 0.686 µM; in test [2] it was 1.5 µM; in [3], 0.962 µM; in test [4] it was 0.596 µM; in test [5] it was greater than 100 µM; in [6], greater than 21.5 µM. The TGI in [7], in [8] and in test [10] was greater than 100 µM throughout.

Turning to `O=C1Nc2c(C(F)(F)F)cccc2[C@@]1(c1ccc(O)cc1)c1ccc(OC(F)(F)F)cc1`, the GI50 in test [1] was less than 0.0148 µM; in test [2] it was less than 0.01 µM; in test [3] it was 0.0177 µM; in test [4] it was less than 0.01 µM; in test [5], 13.3 µM; in test [6], 0.0265 µM. Further, the GI50 was 0.0285 µM in [7], 12.4 µM in [8], 4.19 µM in test [9] and 6.51 µM in test [10]. Moreover, the TGI in test [1] is 0.0337 µM; in test [2], less than 0.0147 µM; in test [3], 0.0435 µM; in test [4] it was less than 0.0171 µM; in [5], 27.7 µM; in test [6], 1.21 µM. For the same molecule, the TGI in test [7] is 0.0974 µM; in test [8], 25 µM; in test [9], 19.7 µM; in test [10], 25.4 µM.

Take `CC1=NOC(=O)/C1=C/c1cccc2ccccc12`: the TGI in test [1], in test [2], in [3], in test [4], in [5] and in test [6] was greater than 100 µM throughout. Besides, the TGI in [7], in [8], in test [9] and in test [10] was greater than 100 µM throughout.

For `COc1ccc2cc(-c3cc4c(oc3=O)-c3ccccc3OC4O)c(=O)oc2c1` (centres undefined), the GI50 in test [1] was 17.3 µM; in test [2], 5.73 µM; in test [3], 17.1 µM; in [4], 15.4 µM; in [5], 16.7 µM; in test [6], 25.4 µM. Further, the GI50 in test [7] was 16.2 µM; in test [8], 19.3 µM; in test [9], 16.7 µM; in test [10], 50 µM. Also, the TGI in test [1] turned out to be 33.5 µM; in [2], 23.4 µM; in [3] it was 31.5 µM; in [4], 30.6 µM; in [5], 32.2 µM; in [6], 41.5 µM. The TGI was 30.5 µM in test [7], 36.8 µM in [8], 34.7 µM in test [9] and greater than 100 µM in [10].

As for `C=CC(=O)NCc1cccc(Nc2ncc(Br)c(NCCCNC(=O)C3CCC3)n2)c1`, the GI50 in [1] is 0.549 µM; in test [2], 0.113 µM and 0.0839 µM; in test [3] it was 1.67 µM and 0.27 µM; in [4], 1.57 µM and 1.18 µM; in [5], 2.44 µM and 2.26 µM; in test [6], 1.29 µM and 1.26 µM. Moreover, the GI50 was 1.07 µM and 1.38 µM in [7]; 1.62 µM and 1.68 µM in test [8]; 0.941 µM and 1.27 µM in test [9]; 1.73 µM and 2.28 µM in test [10]. Further, the TGI is 2.08 µM in [1]; 0.637 µM and 1.02 µM in test [2]; 12.5 µM and 4.83 µM in [3]; 4.78 µM and 8.16 µM in [4]; 9.94 µM and 9.29 µM in [5]; 6.16 µM and > 25 µM in [6]. The TGI is 12.5 µM and 18.3 µM in test [7]; 5.78 µM and 6.56 µM in test [8]; 4.7 µM and 5.55 µM in test [9]; 12.5 µM and > 25 µM in test [10].

In the case of `Cc1cccc2c1N(C(=O)/C=C\C(=O)O)C(c1c(C)[nH]c3ccccc13)C2` (centres undefined), the TGI in [1] was greater than 100 µM; in test [2], greater than 10 µM; in test [3] it was greater than 100 µM; in [4], greater than 10 µM; in test [5] it was 53.3 µM; in test [6] it was greater than 100 µM. The TGI was greater than 100 µM in test [7], 48.1 µM in test [8], greater than 100 µM in test [9] and greater than 100 µM in test [10].
